Data taken from patent publication US20240207236A1, “COMPOUND FOR PREVENTING OR TREATING DIABETES” (ONCOCROSS CO., LTD., priority 2021, published 2024).

Test system: animal model of insulin-resistant diabetes
Assay: Histopathological change of liver, kidney and pancreas (H&E)
Format: in vivo, mice (C57BL/6)
Settings: for Kidney Medullar apoptosis / Kidney Medullar mineralization / Kidney NHL / Kidney bowman's capsule hyperplasia / Kidney pappillary mineralization / Liver Apoptosis / Liver Cytoplasmic glycogen / Liver Eosinophlic focus of cellular alteration / Liver Mononuclear cell infiltrate / Liver NHL / Pancrease Apoptosis / Pancrease NHL / Pancrease islet degeneration / Pancrease islet hypertrophy / Pancrease islet, mononuclear cell infillitrate: count in group of 10 animals
Experimental: STZ (Sigma-aldrich, S0130, 40 mg/kg b.w., in 0.1 M citrate buffer pH 4.5) was intraperitoneally administered to 9-week-old male mice (C57BL/6) once/1 day for 5 days to perform a first disease induction. After 7 weeks of the first induction, a second induction was performed using the same method as the first induction. For 5 days of an STZ administration period for the first induction, 10% sucrose was administered as drinking water. In addition, after 14 days of the second administration, blood sugar was confirmed to confirm the induction rate, and the induced animals were separated into groups. Experimental substances (R)-4-{(R)-1-[7-(3,4,5-trimethoxy-phenyl)-[1,6] naphthyridine-5-yloxy]-ethyl}pyrrolidine-2-one (BI-1002494) and cromolyn (OC-101) were administered orally into the stomach at 10 mL/kg using an oral administration syringe (sonde) before 16:00 daily for 12 weeks at a frequency of 7 days/week at doses shown in Table 1 below, respectively, and dexamethasone was orally administered as a positive control substance.
At the end of the observation period, the mice in each group of Example 1 were confirmed to be dead, and the liver, kidney, and pancreas were extracted and fixed with 10% neutral buffered formalin (NBF) in at least 20 times the tissue volume. The fixed tissue was sectioned to a thickness of approximately 4 mm and then produced into a paraffin block through general tissue processing and embedding processes. Thereafter, the tissue was sectioned to a thickness of 4 μm using a rotary microtome, and then H&E staining was performed, and histopathological changes were observed.

[1] = administered groups 12.5-50 mg/kg, Table 8 and FIG. 2

## COc1cc(-c2cc3ncccc3c(O[C@H](C)[C@H]3CNC(=O)C3)n2)cc(OC)c1OC [BI-1002494, (R)-4-{(R)-1-[7-(3,4,5-trimethoxy-phenyl)-[1,6]naphthyridine-5-yloxy]-ethyl}pyrrolidine-2-one]
12.5 mg/kg (G4)
  Kidney Medullar apoptosis: 3
  Kidney Medullar mineralization: 0
  Kidney NHL: 7
  Kidney bowman's capsule hyperplasia: 0
  Kidney pappillary mineralization: 0
  Liver Apoptosis: 2
  Liver Cytoplasmic glycogen: 1
  Liver Eosinophlic focus of cellular alteration: 0
  Liver Mononuclear cell infiltrate: 1
  Liver NHL: 7
  Pancrease Apoptosis: 1
  Pancrease NHL: 5
  Pancrease islet degeneration: 2
  Pancrease islet hypertrophy: 1
  Pancrease islet, mononuclear cell infillitrate: 1
25 mg/kg (G5)
  Kidney Medullar apoptosis: 2
  Kidney Medullar mineralization: 1
  Kidney NHL: 7
  Kidney bowman's capsule hyperplasia: 0
  Kidney pappillary mineralization: 0
  Liver Apoptosis: 3
  Liver Cytoplasmic glycogen: 0
  Liver Eosinophlic focus of cellular alteration: 0
  Liver Mononuclear cell infiltrate: 2
  Liver NHL: 7
  Pancrease Apoptosis: 0
  Pancrease NHL: 8
  Pancrease islet degeneration: 1
  Pancrease islet hypertrophy: 1
  Pancrease islet, mononuclear cell infillitrate: 0
50 mg/kg (G6, G7)
  Kidney Medullar apoptosis: 1
  Kidney Medullar mineralization: 2
  Kidney NHL: 7
  Kidney bowman's capsule hyperplasia: 0
  Kidney pappillary mineralization: 0
  Liver Apoptosis: 2
  Liver Cytoplasmic glycogen: 0
  Liver Eosinophlic focus of cellular alteration: 0
  Liver Mononuclear cell infiltrate: 1
  Liver NHL: 8
  Pancrease Apoptosis: 0
  Pancrease NHL: 7
  Pancrease islet degeneration: 1
  Pancrease islet hypertrophy: 2
  Pancrease islet, mononuclear cell infillitrate: 0
[1]
  cytoplasmic glycogen in the liver: reduced in the liver
  medullar apoptosis in the kidney: reduced in the kidney in a dose-dependent manner
